Reference: US20100298141A1, “SUBSTITUTED PYRIDINE N-OXIDE HERBICIDES” (E. I. DU PONT DE NEMOURS AND COMPANY, priority 2007, published 2010)

Experiments:
crabgrass = test: Test A pre-/postemergence greenhouse test; assay type: in vivo, Digitaria sanguinalis; settings: for Crabgrass, Large plant response rating: 0 to 100 scale; for Plant response rating, Crabgrass, Large: 0 to 100 scale where 0 is no effect and 100 is complete control
Summary of the method: (§1)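 Test compounds in non-phytotoxic solvent with surfactant were applied as a preemergence soil spray to seeded loam/sand pots and, concurrently, postemergence to plants at 2–10 cm, one- to two-leaf stage. About ten days in greenhouse, then injury visually rated against untreated controls.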

giant foxtail [1] = test: Test A pre-/postemergence greenhouse test; assay type: in vivo, Setaria faberi; settings: for Foxtail, Giant plant response rating: 0 to 100 scale; for Plant response rating, Foxtail, Giant: 0 to 100 scale where 0 is no effect and 100 is complete control
Summary of the method: as §1

morningglory [2] = test: Test A pre-/postemergence greenhouse test; assay type: in vivo, Ipomoea spp.; settings: for Morningglory plant response rating: 0 to 100 scale; for Plant response rating, Morningglory: 0 to 100 scale where 0 is no effect and 100 is complete control
Summary of the method: as §1

wheat = test: Test A pre-/postemergence greenhouse test; assay type: in vivo, Triticum aestivum; settings: for Wheat plant response rating: 0 to 100 scale; for Plant response rating, Wheat: 0 to 100 scale where 0 is no effect and 100 is complete control
Summary of the method: as §1

downy brome = test: Test C pre-/postemergence test; assay type: in vivo, Bromus tectorum
Summary of the method: (§2)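 Seeds were planted and treated preemergence with test chemical in a non-phytotoxic solvent mixture containing surfactant. Postemergence applications of the same formulation went onto plants 2 to 18 cm tall (1- to 4-leaf stage). A dash marks no test result.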

cocklebur = test: Test C pre-/postemergence test; assay type: in vivo, Xanthium strumarium
Summary of the method: as §2

corn = test: Test C pre-/postemergence test; assay type: in vivo, Zea mays
Summary of the method: as §2

woolly cupgrass = test: Test C pre-/postemergence test; assay type: in vivo, Eriochloa villosa
Summary of the method: as §2

giant foxtail [3] = test: Test C pre-/postemergence test; assay type: in vivo, Setaria faberii
Summary of the method: as §2

Goosegrass = test: Test C pre-/postemergence test; assay type: in vivo, Eleusin indica
Summary of the method: as §2

johnsongrass = test: Test C pre-/postemergence test; assay type: in vivo, Sorghum halepense
Summary of the method: as §2

lambsquarters = test: Test C pre-/postemergence test; assay type: in vivo, Chenopodium album; settings: for Plant response rating, Lambsquarters: scale 0 to 100, 0 no effect, 100 complete control; for Lambsquarters plant response rating: preemergence, scale 0 (no effect) to 100 (complete control)
Summary of the method: as §2

morningglory [4] = test: Test C pre-/postemergence test; assay type: in vivo, Ipomoea coccinea
Summary of the method: as §2

yellow nutsedge = test: Test C pre-/postemergence test; assay type: in vivo, Cyperus esculentus
Summary of the method: as §2

common ragweed = test: Test C pre-/postemergence test; assay type: in vivo, Ambrosia elation; settings: for Plant response rating (0 to 100), Ragweed / Plant response rating, Ragweed: Postemergence; for Plant response rating, Ragweed: scale 0 to 100, 0 no effect, 100 complete control
Summary of the method: as §2

soybean = test: Test C pre-/postemergence test; assay type: in vivo, Glycine max
Summary of the method: as §2

umbrella sedge = test: Test C flooded paddy test; assay type: in vivo, Cyperus difformis; settings: Flood
Summary of the method: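 Visual injury ratings against untreated controls, taken 13 to 15 days after compound was added to paddy water standing 3 cm above the soil.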

[5] = Postemergence, 125 g ai/ha, 0 is no effect, 100 is complete control
[6] = Postemergence, 500 g ai/ha, 0 is no effect, 100 is complete control
[7] = Preemergence, 125 g ai/ha, 0 no effect, 100 complete control
[8] = Postemergence, 62 g ai/ha, scale 0 to 100, 0 no effect, 100 complete control
[9] = Postemergence, 125 g ai/ha, scale 0 to 100, 0 no effect, 100 complete control
[10] = Postemergence, 250 g ai/ha, scale 0 to 100, 0 no effect, 100 complete control
[11] = 250 g ai/ha, scale 0 to 100, 0 no effect, 100 complete control, 13 to 15 days
[12] = 62 g ai/ha, Preemergence, scale 0 to 100
[13] = 125 g ai/ha, preemergence, scale 0 (no effect) to 100 (complete control)
[14] = Preemergence, 31 g ai/ha, scale 0 to 100 (0 no effect, 100 complete control)
[15] = preemergence, 250 g ai/ha, scale 0 (no effect) to 100 (complete control)

CC(c1c(C(F)(F)F)nn(C)c1Cl)S(=O)(=O)c1ccc(Cl)c[n+]1[O-] (racemic) [Compound 40]
Crabgrass, Large plant response rating (crabgrass; [5]): 80
Crabgrass, Large plant response rating (crabgrass; [6]): 80
Crabgrass, Large plant response rating (crabgrass; [7]): 60
Plant response rating, Crabgrass, Large (crabgrass; Preemergence, 500 g ai/ha): 90
Foxtail, Giant plant response rating (giant foxtail [1]; [5]): 80
Foxtail, Giant plant response rating (giant foxtail [1]; [6]): 90
Foxtail, Giant plant response rating (giant foxtail [1]; [7]): 90
Plant response rating, Foxtail, Giant (giant foxtail [1]; Preemergence, 500 g ai/ha): 100
Morningglory plant response rating (morningglory [2]; [5]): 0
Morningglory plant response rating (morningglory [2]; [6]): 30
Morningglory plant response rating (morningglory [2]; [7]): 0
Plant response rating, Morningglory (morningglory [2]; Preemergence, 500 g ai/ha): 80
Wheat plant response rating (wheat; [5]): 30
Wheat plant response rating (wheat; [6]): 50
Wheat plant response rating (wheat; [7]): 0
Plant response rating, Wheat (wheat; Preemergence, 500 g ai/ha): 40
Plant response rating (0 to 100), Bromegrass, Downy (downy brome; Postemergence, 31 g ai/ha): 0
Plant response rating, Bromegrass, Downy (downy brome; [8]): 0
Plant response rating, Bromegrass, Downy (downy brome; [9]): 0
Plant response rating, Bromegrass, Downy (downy brome; [10]): 0
Plant response rating (0 to 100), Cocklebur (cocklebur; Postemergence, 31 g ai/ha): 0
Plant response rating, Cocklebur (cocklebur; [8]): 0
Plant response rating, Cocklebur (cocklebur; [9]): 0
Plant response rating, Cocklebur (cocklebur; [10]): 0
Plant response rating (0 to 100), Corn (corn; Postemergence, 31 g ai/ha): 0
Plant response rating, Corn (corn; [8]): 0
Plant response rating, Corn (corn; [9]): 0
Plant response rating, Corn (corn; [10]): 0
Plant response rating (0 to 100), Cupgrass, Woolly (woolly cupgrass; Postemergence, 31 g ai/ha): 0
Plant response rating, Cupgrass, Woolly (woolly cupgrass; [8]): 0
Plant response rating, Cupgrass, Woolly (woolly cupgrass; [9]): 0
Plant response rating, Cupgrass, Woolly (woolly cupgrass; [10]): 0
Plant response rating (0 to 100), Foxtail, Giant (giant foxtail [3]; Postemergence, 31 g ai/ha): 0
Plant response rating, Foxtail, Giant (giant foxtail [3]; [8]): 0
Plant response rating, Foxtail, Giant (giant foxtail [3]; [9]): 0
Plant response rating, Foxtail, Giant (giant foxtail [3]; [10]): 0
Plant response rating (0 to 100), Goosegrass (Goosegrass; Postemergence, 31 g ai/ha): 0
Plant response rating, Goosegrass (Goosegrass; [8]): 0
Plant response rating, Goosegrass (Goosegrass; [9]): 0
Plant response rating, Goosegrass (Goosegrass; [10]): 0
Plant response rating (0 to 100), Johnsongrass (johnsongrass; Postemergence, 31 g ai/ha): 0
Plant response rating, Johnsongrass (johnsongrass; [8]): 20
Plant response rating, Johnsongrass (johnsongrass; [9]): 20
Plant response rating, Johnsongrass (johnsongrass; [10]): 60
Plant response rating (0 to 100), Lambsquarters (lambsquarters; Postemergence, 31 g ai/ha): 0
Plant response rating, Lambsquarters (lambsquarters; Postemergence, 62 g ai/ha): 0
Plant response rating, Lambsquarters (lambsquarters; Postemergence, 125 g ai/ha): 0
Plant response rating, Lambsquarters (lambsquarters; Postemergence, 250 g ai/ha): 0
Plant response rating (0 to 100), Morningglory (morningglory [4]; Postemergence, 31 g ai/ha): 0
Plant response rating, Morningglory (morningglory [4]; [8]): 0
Plant response rating, Morningglory (morningglory [4]; [9]): 0
Plant response rating, Morningglory (morningglory [4]; [10]): 0
Plant response rating (0 to 100), Nutsedge, Yellow (yellow nutsedge; Postemergence, 31 g ai/ha): 0
Plant response rating, Nutsedge, Yellow (yellow nutsedge; [8]): 0
Plant response rating, Nutsedge, Yellow (yellow nutsedge; [9]): 0
Plant response rating, Nutsedge, Yellow (yellow nutsedge; [10]): 0
Plant response rating (0 to 100), Ragweed (common ragweed; 31 g ai/ha): 0
Plant response rating (0 to 100), Ragweed (common ragweed; 62 g ai/ha): 0
Plant response rating, Ragweed (common ragweed; 125 g ai/ha): 0
Plant response rating, Ragweed (common ragweed; 250 g ai/ha): 5
Plant response rating (0 to 100), Soybean (soybean; Postemergence, 31 g ai/ha): 0
Plant response rating (0 to 100), Soybean (soybean; Postemergence, 62 g ai/ha): 0
Plant response rating, Soybean (soybean; [9]): 0
Plant response rating, Soybean (soybean; [10]): 0
Plant response rating, Sedge, Umbrella (umbrella sedge; 31 g ai/ha, scale 0 to 100 (0 no effect, 100 complete control)): 20
Plant response rating, Sedge, Umbrella (umbrella sedge; 62 g ai/ha, scale 0 to 100, 0 no effect, 100 complete control, 13 to 15 days): 45
Plant response rating, Sedge, Umbrella (umbrella sedge; 125 g ai/ha, scale 0 to 100, 0 no effect, 100 complete control, 13 to 15 days): 75
Plant response rating, Sedge, Umbrella (umbrella sedge; [11]): 85

Cn1nc(OC(F)F)c(CS(=O)(=O)c2cccc[n+]2[O-])c1C(F)(F)F [Compound 80]
Plant response rating, Crabgrass, Large (crabgrass; Postemergence, 125 g ai/ha): 40
Crabgrass, Large plant response rating (crabgrass; [6]): 80
Crabgrass, Large plant response rating (crabgrass; [7]): 80
Plant response rating, Crabgrass, Large (crabgrass; Preemergence, 500 g ai/ha): 90
Plant response rating, Foxtail, Giant (giant foxtail [1]; Postemergence, 125 g ai/ha): 70
Foxtail, Giant plant response rating (giant foxtail [1]; [6]): 80
Foxtail, Giant plant response rating (giant foxtail [1]; [7]): 90
Plant response rating, Foxtail, Giant (giant foxtail [1]; Preemergence, 500 g ai/ha): 100
Plant response rating, Morningglory (morningglory [2]; Postemergence, 125 g ai/ha): 10
Morningglory plant response rating (morningglory [2]; [6]): 50
Morningglory plant response rating (morningglory [2]; [7]): 60
Plant response rating, Morningglory (morningglory [2]; Preemergence, 500 g ai/ha): 80
Plant response rating, Wheat (wheat; Postemergence, 125 g ai/ha): 30
Wheat plant response rating (wheat; [6]): 60
Wheat plant response rating (wheat; [7]): 10
Plant response rating, Wheat (wheat; Preemergence, 500 g ai/ha): 80
Bromegrass, Downy plant response rating (downy brome; [12]): 40
Bromegrass, Downy plant response rating (downy brome; [13]): 60
Plant response rating, Bromegrass, Downy (downy brome; [14]): 40
Bromegrass, Downy plant response rating (downy brome; [15]): 95
Cocklebur plant response rating (cocklebur; [12]): 0
Cocklebur plant response rating (cocklebur; [13]): 45
Plant response rating, Cocklebur (cocklebur; [14]): 0
Cocklebur plant response rating (cocklebur; [15]): 80
Corn plant response rating (corn; [12]): 35
Corn plant response rating (corn; [13]): 90
Plant response rating, Corn (corn; [14]): 30
Corn plant response rating (corn; [15]): 98
Cupgrass, Woolly plant response rating (woolly cupgrass; [12]): 100
Cupgrass, Woolly plant response rating (woolly cupgrass; [13]): 100
Plant response rating, Cupgrass, Woolly (woolly cupgrass; [14]): 100
Cupgrass, Woolly plant response rating (woolly cupgrass; [15]): 100
Foxtail, Giant plant response rating (giant foxtail [3]; [12]): 90
Foxtail, Giant plant response rating (giant foxtail [3]; [13]): 98
Plant response rating, Foxtail, Giant (giant foxtail [3]; [14]): 80
Foxtail, Giant plant response rating (giant foxtail [3]; [15]): 100
Goosegrass plant response rating (Goosegrass; [12]): 98
Goosegrass plant response rating (Goosegrass; [13]): 100
Plant response rating, Goosegrass (Goosegrass; [14]): 80
Goosegrass plant response rating (Goosegrass; [15]): 100
Johnsongrass plant response rating (johnsongrass; [12]): 85
Johnsongrass plant response rating (johnsongrass; [13]): 90
Plant response rating, Johnsongrass (johnsongrass; [14]): 85
Johnsongrass plant response rating (johnsongrass; [15]): 100
Lambsquarters plant response rating (lambsquarters; 125 g ai/ha): 60
Lambsquarters plant response rating (lambsquarters; 250 g ai/ha): 100
Morningglory plant response rating (morningglory [4]; [13]): 100
Plant response rating, Morningglory (morningglory [4]; [14]): 10
Nutsedge, Yellow plant response rating (yellow nutsedge; [12]): 75
Nutsedge, Yellow plant response rating (yellow nutsedge; [13]): 85
Plant response rating, Nutsedge, Yellow (yellow nutsedge; [14]): 45
Nutsedge, Yellow plant response rating (yellow nutsedge; [15]): 95
Ragweed plant response rating (common ragweed; [12]): 0
Ragweed plant response rating (common ragweed; [13]): 85
Ragweed plant response rating (common ragweed; [15]): 100
Soybean plant response rating (soybean; [12]): 0
Soybean plant response rating (soybean; [13]): 20
Plant response rating, Soybean (soybean; [14]): 0
Soybean plant response rating (soybean; [15]): 20
Plant response rating, Sedge, Umbrella (umbrella sedge; 62 g ai/ha, scale 0 to 100 (0 no effect, 100 complete control)): 0
Plant response rating, Sedge, Umbrella (umbrella sedge; [11]): 85
